Legend:
[1] = test system: ZR-75-1 breast cancer cells; design: method as in Gilbert et al., 2020; settings: ZR-75-1, Breast (ER/PR); MTT, 72 h; ref Gilbert et al., 2020; cited from earlier work
[2] = test system: MDA-MB-231 breast cancer cells; design: method as in Gilbert et al., 2020; settings: MDA-MB-231, Breast (TN); MTT, 72 h; ref Gilbert et al., 2020; cited from earlier work
BT20 breast cancer cells = test system: BT20 breast cancer cells; design: method as in Gilbert et al., 2020; settings: BT20, Breast (TN); MTT, 72 h; ref Gilbert et al., 2020; cited from earlier work
[3] = test system: MDA-MB-468 breast cancer cells; design: method as in Gilbert et al., 2020; settings: MDA-MB-468, Breast (TN); MTT, 72 h; ref Gilbert et al., 2020; cited from earlier work
U87 (brain) cells = test system: U87 (brain) cells; design: method as in Gilbert et al., 2020; settings: U87, Brain (GBM); MTT, 72 h; ref Gilbert et al., 2020; cited from earlier work
MIA (pancreas) cells = test system: MIA (pancreas) cells; design: method as in Gilbert et al., 2020; settings: MTT, 72 h, ref Gilbert et al., 2020; cited from earlier work
SJ-G2 (brain) cells = test system: SJ-G2 (brain) cells; design: method as in Gilbert et al., 2020; settings: SJ-G2, Brain (GBM); MTT, 72 h; ref Gilbert et al., 2020; cited from earlier work
HT29 (colorectal) cells = test system: HT29 (colorectal) cells; design: method as in Gilbert et al., 2020; settings: HT29, Colon; MTT, 72 h; ref Gilbert et al., 2020; cited from earlier work

SMILES: Nc1ccccc1N1C(=O)c2cccc3cccc(c23)C1=O [Compound 2, 2-(2-aminophenyl)-1H-benzo[de]isoquinoline-1,3(2H)-dione]
- GI50 [1]: 0.12 ± 0.03 µM
- GI50 [2]: 35 ± 3 µM
- GI50 (BT20 breast cancer cells): 14 ± 1.5 µM
- GI50 [3]: 0.1 ± 0.02 µM
- GI50 (U87 (brain) cells): > 50 µM
- GI50 (MIA (pancreas) cells): > 50 µM
- GI50 (SJ-G2 (brain) cells): > 50 µM
- GI50 (HT29 (colorectal) cells): 32 ± 2 µM

SMILES: O=c1c2cccc3cccc(c4n1Cc1ccccc1N=4)c32 [Compound 13, 7H,9H-benzo[4,5]isoquinolino[1,2-b]quinazolin-7-one]
- melting point: 256 to 258 °C
